Test results as given in PMC4529246 (PLoS ONE, 2015).
Where two headings read alike, the source gives them in different places.

Columns and labels:
Assay in all cases: cell-based
[1] = biological target: T1, system xc- (IMR90) (Homo sapiens, UniProt Q9UPY5); parameters: species or system IMR-90; cystine-induced glutamate release inhibition, 30 min, PBS with Na+; details: PBS (+Na+), 30 min; read-out: Glutamate Release IMR90
T1 construct: gene SLC7A11; native endogenous transporter in intact IMR-90 fibroblasts
T1 sequence (Q9UPY5 1-501): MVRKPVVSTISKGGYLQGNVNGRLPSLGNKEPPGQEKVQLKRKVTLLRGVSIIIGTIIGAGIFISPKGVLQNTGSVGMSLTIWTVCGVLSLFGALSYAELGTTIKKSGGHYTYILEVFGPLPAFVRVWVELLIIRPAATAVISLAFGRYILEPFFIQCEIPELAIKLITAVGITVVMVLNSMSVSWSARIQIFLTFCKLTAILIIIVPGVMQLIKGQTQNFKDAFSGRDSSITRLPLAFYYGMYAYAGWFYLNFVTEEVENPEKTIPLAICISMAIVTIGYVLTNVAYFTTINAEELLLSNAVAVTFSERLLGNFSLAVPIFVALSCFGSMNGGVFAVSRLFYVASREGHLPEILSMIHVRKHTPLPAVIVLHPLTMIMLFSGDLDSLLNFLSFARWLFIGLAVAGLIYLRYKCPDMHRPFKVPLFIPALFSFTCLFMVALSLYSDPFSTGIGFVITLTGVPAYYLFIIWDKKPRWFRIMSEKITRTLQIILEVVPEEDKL
T1 sequence (P08195 1-529 partner): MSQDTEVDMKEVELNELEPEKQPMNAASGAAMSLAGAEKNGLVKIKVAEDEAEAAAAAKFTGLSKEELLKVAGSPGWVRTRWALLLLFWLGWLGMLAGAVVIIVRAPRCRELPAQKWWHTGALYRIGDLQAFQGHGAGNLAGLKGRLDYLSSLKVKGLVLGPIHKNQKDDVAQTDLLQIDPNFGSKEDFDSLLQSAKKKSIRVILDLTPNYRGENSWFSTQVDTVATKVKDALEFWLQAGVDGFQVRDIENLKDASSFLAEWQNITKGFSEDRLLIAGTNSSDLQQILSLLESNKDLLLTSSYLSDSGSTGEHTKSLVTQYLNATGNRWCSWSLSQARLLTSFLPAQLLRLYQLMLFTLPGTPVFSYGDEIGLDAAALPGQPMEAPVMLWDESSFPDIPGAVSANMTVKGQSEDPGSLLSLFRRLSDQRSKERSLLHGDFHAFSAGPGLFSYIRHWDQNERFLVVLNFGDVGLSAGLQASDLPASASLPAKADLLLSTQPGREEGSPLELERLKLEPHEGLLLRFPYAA
Experimental: Early characterization of the cystine-induced glutamate release assay was carried out in the 96-well format and later adapted to the 384-well format. Briefly, CCF-STTG-1 cells were seeded at 0.04 x 10^6 cells per 96-well and grown to confluence. […] Cells were maintained for 2h at 37°C in an incubator with 5% CO2. At the end of the incubation period, cystine-induced glutamate release was measured directly. The assay was further characterized for the dependence of cystine-induced glutamate release on protein content (mg/ml) and the time of incubation. […] Cells were maintained at 37°C in an incubator with 5% CO2 and the glutamate released over a 2h period measured. Identical protocols were followed for IC50 determinations using UB or PBS with CCF-STTG-1, neuroglioma (H4) or fibroblast (IMR-90) cells. U-87 MG cells were seeded at 0.06 x 10^6 cells per 96-well (in 0.3 ml growth media) and tested on Day2. When running the assay in the 384-well format, CCF-STTG-1 cells were seeded at 0.01 x 10^6 cells per well (in 0.025 ml growth media) and grown to confluence. […] Cells were maintained for 3h at 37°C in an incubator with 5% CO2. At the end of the incubation period, cystine-induced glutamate release was measured directly. The rates of [^14C]-cystine influx and cystine-induced glutamate efflux were closely examined using CCF-STTG-1 (grade IV astrocytoma) cells in order to understand the reasons for the lower IC50 values and longer time-dependence in the cystine-induced glutamate release assay. […] The experiments were repeated also using IMR-90 fibroblast cells derived from normal embryonic lung and a second cancer line, the H4 neuroglioma cells. […] (DOCX) Click here for additional data file.

[2] = biological target: T2, system xc- (H4) (Homo sapiens, UniProt Q9UPY5); parameters: cystine-induced glutamate release inhibition, 30 min, PBS with Na+; details: PBS (+Na+), 30 min; read-out: Glutamate Release H4
T2 construct: gene SLC7A11; native endogenous transporter in intact H4 neuroglioma cells
T2 sequence (Q9UPY5 1-501): T1 sequence (Q9UPY5 1-501)
T2 sequence (P08195 1-529 partner): T1 sequence (P08195 1-529 partner)
Experimental: Early characterization of the cystine-induced glutamate release assay was carried out in the 96-well format and later adapted to the 384-well format. Briefly, CCF-STTG-1 cells were seeded at 0.04 x 10^6 cells per 96-well and grown to confluence. […] Cells were maintained for 2h at 37°C in an incubator with 5% CO2. At the end of the incubation period, cystine-induced glutamate release was measured directly. The assay was further characterized for the dependence of cystine-induced glutamate release on protein content (mg/ml) and the time of incubation. […] Cells were maintained at 37°C in an incubator with 5% CO2 and the glutamate released over a 2h period measured. Identical protocols were followed for IC50 determinations using UB or PBS with CCF-STTG-1, neuroglioma (H4) or fibroblast (IMR-90) cells. U-87 MG cells were seeded at 0.06 x 10^6 cells per 96-well (in 0.3 ml growth media) and tested on Day2. When running the assay in the 384-well format, CCF-STTG-1 cells were seeded at 0.01 x 10^6 cells per well (in 0.025 ml growth media) and grown to confluence. […] Cells were maintained for 3h at 37°C in an incubator with 5% CO2. At the end of the incubation period, cystine-induced glutamate release was measured directly. […]

[3] = biological target: T1, system xc- (IMR90); parameters: species or system IMR-90; [14C]-cystine uptake inhibition, 2 min, PBS with Na+, scintillation counting; details: PBS (+Na+), 2 min
Experimental: Early characterization work was carried out in a 12-well format and the assay later adapted and characterized in the 96-well format. Briefly, CCF-STTG-1 cells were seeded at 0.04 x 10^6 cells per well in 0.2 ml growth media and grown to confluence. […] Cells were then lysed with 0.1 N NaOH (100 μl/well) and the radioactivity in the cells measured using scintillant-coated 96-well plates (PerkinElmer: 6005630) and normalized to protein contents. The assay was further characterized for the dependence of ^14C-cystine uptake on protein content (mg/ml) and the time and temperature of incubation. To determine IC50 values, CCF-STTG-1 cells were similarly seeded and grown to confluence. On day 3, transport was initiated upon the addition of pre-warmed (37°C) [^14C]-cystine 80 μM ([…], Sigma: E3024, contents in mM: NaCl 116.4, NaHCO3 26.2, NaH2PO4 1.02, KCl 5.36, MgSO4 0.81, CaCl2 1.8 and Glucose 5.56, pH 7.4) in the presence and absence of inhibitors. […] Identical protocols were followed for IC50 determinations using UB or phosphate buffered saline (PBS; contents in mM: S1 Table) with […] The rates of [^14C]-cystine influx and cystine-induced glutamate efflux were closely examined using CCF-STTG-1 (grade IV astrocytoma) cells in order to understand the reasons for the lower IC50 values and longer time-dependence in the cystine-induced glutamate release assay. […]

[4] = biological target: T2, system xc- (H4); parameters: [14C]-cystine uptake inhibition, 2 min, PBS with Na+, scintillation counting; details: PBS (+Na+), 2 min
Experimental: Early characterization work was carried out in a 12-well format and the assay later adapted and characterized in the 96-well format. Briefly, CCF-STTG-1 cells were seeded at 0.04 x 10^6 cells per well in 0.2 ml growth media and grown to confluence. […] After 15 min, uptake was terminated by three washes (115 μl/well) with ice-cold UB. Cells were then lysed with 0.1 N NaOH (100 μl/well) and the radioactivity in the cells measured using scintillant-coated 96-well plates (PerkinElmer: 6005630) and normalized to protein contents. The assay was further characterized for the dependence of ^14C-cystine uptake on protein content (mg/ml) and the time and temperature of incubation. To determine IC50 values, CCF-STTG-1 cells were similarly seeded and grown to confluence. On day 3, transport was initiated upon the addition of pre-warmed (37°C) [^14C]-cystine 80 μM (5.631 μCi/μmol) in Earle’s Balanced Salt Solution (EBSS, Sigma: E3024, contents in mM: NaCl 116.4, NaHCO3 26.2, NaH2PO4 1.02, KCl 5.36, MgSO4 0.81, CaCl2 1.8 and Glucose 5.56, pH 7.4) in the presence and absence of inhibitors. […]

| IC50 [1] | IC50 [2] | IC50 [3] | IC50 [4] | SMILES |
| --- | --- | --- | --- | --- |
| > 100 µM | > 100 µM |  |  | N[C@@H](C(=O)O)c1ccc(C(=O)O)cc1 [(R)-4CPG] |
|  |  | 200 ± 3 µM | 200 ± 20 µM | N[C@@H](CCC(=O)O)C(=O)O [glutamate] |
| 3 ± 0.2 µM |  |  |  | O=C(O)c1cc(/N=N/c2ccc(S(=O)(=O)Nc3ccccn3)cc2)ccc1O [SAS] |
| 2 ± 0.4 µM |  |  | 20 ± 0.4 µM | N[C@H](C(=O)O)c1ccc(C(=O)O)cc1 [(S)-4CPG] |
